What all share (format): biochemical
The target in assay [1] is T1, PknG (Mycobacterium tuberculosis, UniProt P9WI73).
T1 construct: Full-length PknG was overexpressed in Escherichia coli BL21(DE3) cells; made in house; host or cells: Escherichia coli BL21(DE3)
As to the kind of experiment: Reversibility of PknG inhibition by thiol reagents (DTT, GSH). The note with it: for effect of thiol reagent per se on control PknG kinase activity: 42 mM DTT or 24 mM GSH.

Assay [2] has as its target T1, PknG.
For assay [3], the target named is T1, PknG. The assay can be described thus: PknG autophosphorylation (MALDI-TOF MS of tryptic phosphopeptides). The settings on record: 30 μM, 10 min before autophosphorylation reaction. The protocol: (§1) FIGS. 4A-4D are a series of graphs depicting PknG kinase activity inhibition by OA-NO2, in which FIG. 4A depicts GarA phosphorylation by PknG by linear MALDI-TOF mass spectrum of: GarA (m/z 17145, dashed line), GarA phosphorylated by PknG using a molar ratio PknG:GarA of 1:20 (m/z 17222, grey line) and GarA phosphorylated by PknG pretreated with 50 μM OA-NO2 for 10 minutes (m/z 17143, black line), FIG. 4B is a series of three panels depicting PknG autophosphorylation with an upper panel illustrating linear MALDI-TOF spectrum of native PknG after tryptic digestion showing basal autophoshporylation pattern. Unphosphorylated peptide (m/z 5395.8), monophosphorylated (m/z 5475.4) and diphosphorylated species (m/z 5555.1) are detected as expected, a middle panel depicting linear MALDI-TOF spectrum of PknG after incubation with ATP and Mn^2+ and further typtic digestion (autophoshorylation positive control). […] After 10 minutes of incubation enzyme activities were determined. Samples were analyzed in triplicates; and FIG. 4D depicts time dependent inhibition of PknG by OA-NO2. […] At the indicated time points aliquots of control and treated PknG were removed, and enzyme inhibition was determined using Kinase Glo® by comparison with control activity. Samples were analyzed in triplicates. […]

The target in assay [4] is T2, PknG Rbx domain (Mycobacterium tuberculosis, UniProt P9WI73).
T2 construct: Full-length PknG was overexpressed in Escherichia coli BL21(DE3) cells; made in house; host or cells: Escherichia coli BL21(DE3)
The assay can be described thus: Iron release from Rbx domain of PknG (BPS spectrophotometric determination). The note with it: 50 μM of OA-NO2.

Assay [5] deals with T1, PknG. The assay can be described thus: Time course of PknG inhibition, Kinase Glo Plus luminescent kinase assay. The note with it: PknG 10 μM, 50 μM OA-NO2, pre-incubation 0 to 30 min, 25° C. The protocol: as §1
For orientation: Kinase-Glo reads ATP consumption through a luciferase reaction.

T1 sequence (P9WI73 whole entry): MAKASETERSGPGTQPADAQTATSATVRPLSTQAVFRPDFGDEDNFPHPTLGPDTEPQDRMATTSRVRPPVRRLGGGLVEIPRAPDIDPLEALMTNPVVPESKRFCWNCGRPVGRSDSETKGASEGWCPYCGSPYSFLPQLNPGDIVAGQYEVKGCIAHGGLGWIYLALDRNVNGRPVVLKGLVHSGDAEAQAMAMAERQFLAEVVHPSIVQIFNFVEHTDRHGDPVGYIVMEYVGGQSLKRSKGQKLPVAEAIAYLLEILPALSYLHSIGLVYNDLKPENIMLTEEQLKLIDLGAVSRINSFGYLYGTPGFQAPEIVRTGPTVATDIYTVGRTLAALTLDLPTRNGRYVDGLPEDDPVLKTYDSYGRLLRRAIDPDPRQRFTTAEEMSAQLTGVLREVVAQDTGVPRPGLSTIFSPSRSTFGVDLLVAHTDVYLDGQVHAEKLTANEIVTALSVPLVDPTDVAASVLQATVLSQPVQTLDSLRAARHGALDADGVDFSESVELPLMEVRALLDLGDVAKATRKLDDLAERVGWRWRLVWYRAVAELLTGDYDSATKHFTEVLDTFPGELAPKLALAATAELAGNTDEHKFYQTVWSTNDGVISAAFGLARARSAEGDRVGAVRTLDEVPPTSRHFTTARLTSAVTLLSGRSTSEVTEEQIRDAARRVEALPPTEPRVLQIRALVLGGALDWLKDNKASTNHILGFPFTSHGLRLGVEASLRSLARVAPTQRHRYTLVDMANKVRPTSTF
T2 sequence (P9WI73 whole entry, the tested form may be a part): as the sequence (P9WI73 whole entry) above

Consider “9- and 10-nitro-octadeca-9-cis-enoic acid [OA-NO2]”, for which the “effect of OA-NO2 on PknG activity (reversibility)” value in assay [1] is listed as “irreversible”. Further, the “ability to phosphorylate GarA” value in assay [2] (30 μM, molar ratio OA-NO2:PknG 3:1, 10 minutes of preincubation) was “clearly decreased”. Besides, the IC50 in assay [2] (PknG 8 μM, OA-NO2 0 to 80 μM, 10 min pre-incubation, 70 mM ammonium bicarbonate pH 8.0, 25° C, read-out: concentration at which 50% of enzyme inhibition was reached) was 35 µM. For the same compound, the “kinase activity of PknG” value in assay [2] (micromolar concentrations, molar excess ranging from 1:1 to 1:3) is recorded as “noticeably inhibited”. Also, in assay [3], the “autocatalytic (autophosphorylation) activity” value is “inhibited”. In addition, in assay [4], the “iron present at the Rbx domain released” value is on record as 70%. Besides, the “kinase activity versus pre-incubation time” value in assay [5] is given as “decreased kinase activity in a time-dependent manner”.
Regarding `O[C@@H](CS)[C@@H](O)CS` [DTT], the “effect of thiol reagent per se on control PknG kinase activity” value in assay [1] is given as “no effect”.
As to `N[C@@H](CCC(=O)N[C@@H](CS)C(=O)NCC(=O)O)C(=O)O` [GSH], the “effect of thiol reagent per se on control PknG kinase activity” value in assay [1] is “no effect”.
`NC(=O)CI` [IAM, iodoacetamide, reference compound]: in assay [2] (IAM treatment (up to 150 μM, PknG 10 μM), only free Cys156 modified), the “effect on kinase activity” value was “without affecting kinase activity”.
In the case of `CCCCCCCCC=CCCCCCCCC(=O)O` [oleic acid, 9-octadecenoic acid, reference compound], in assay [2] (equivalent concentrations to OA-NO2, data not shown), the “effect on kinase activity (control)” value is recorded as “no effect”.
